Experimental data reported in patent publication US20130267571A1, “TERPENOID ANALOGUES AND USES THEREOF FOR TREATING NEUROLOGICAL CONDITIONS” (NeuroQuest Inc., priority 2010, published 2013).

Tests used:
[1] = tested on: zebrafish embryos; test: Zebrafish response (anaesthesia) assay, touch response/swim behaviour; assay type: in vivo; conditions: Danio rerio, 1.5 h; complete anaesthesia (scale 1) in 50% of AB wild type embryos (54 hpf), 90 min at 28° C.
From the text: Briefly, the ZEA assay involves applying essential oils, fractions or individual compounds to developmentally staged zebrafish embryos followed by monitoring of embryonic touch response/swim behaviour and evaluation of the dose response relationship for each substance. Using a four point scale to describe the embryonic behaviours (Table 4), initial analysis focused on monitoring and recording these changes and evaluating the level of bioactivity. The effective concentration to generate complete anaesthesia in 50% of the embryos (EC50), were evaluated as follows:
Compounds are tested on developmentally staged AB “wild type” zebrafish embryos (54 hpf+/−2 hpf) at concentrations ranging between 10 and 400 μM.
Each compound is diluted in a 95% ethanol or DMSO carrier to create a working stock solution from which appropriate dilutions are made in standard embryo E3 media.
1000 μl of each concentration or appropriate carrier control are added to 10 wild type AB embryos in a single well of a 24 well plate, in duplicate.
The embryos are incubated for 90 min at 28° C. (optimal temperature for embryonic growth) in the diluted compound.
A four point scale (Table 4) is used to evaluate the touch response and swim behaviour for each embryo in all wells.
The effectiveness of the compound will be based on its ability to generate complete anaesthesia (scale: 1) in 50% of the embryos at a given concentration (EC50).
The EC50 values are calculated using GraphPad Prism® software to analyze the log (dose) response curves.

[2] = tested on: voltage-gated Na+ channels; test: Sodium (Na+) channel analysis in rat DRG neurons using whole cell patch-clamp; assay type: cell-based; conditions: Na+ currents in isolated rat DRG neurons, 3 min in presence of drug, read-out: IC50 range
Procedure: Isolated DRG neurons were suspended in primary neuron basal media and placed on glass coverslips for incubation in humidified atmosphere of 5% CO2 at 37° C. Coverslips carrying cells was transferred to the bath of an inverted microscope (Zeiss), continuously perfused with oxygenated artificial cerebro-spinal fluid (ACSF) containing (in mM) 124 NaCl, 2.5 KCl, 2 CaCl2, 1 MgSO4, 25 NaHCO3, 1 NaH2PO4, and 10 glucose, at a rate of 2-3 ml/min. Recording of whole-cell membrane currents were made at room temperature. Recording pipette (4-6 MS2) was filled with internal solution containing (in mM) 145 K-gluconate, 5 NaCl, 1 MgCl2, 0.2 EGTA, 10 HEPES, 2 Mg-ATP, 0.1 Na-GTP, and 10 phosphocreatine. To isolate Na^+ currents, DRG neurons were superfused with ACSF containing tetraethylammonium chloride (TEA) 5 mM, cesium chloride (CsCl) 100 μM and cadmium chloride (CdCl) 1 mM, to block potassium and calcium currents. NQ compounds were freshly dissolved in ASCF containing TEA, CsCl and CdCl, prior application via the bath.
For recording Na^+ currents, cells were held at −60 mV before applying a conditioning hyperpolarizing step (50 ms) to −90 mv to reactivate the voltage-gated Na^+ channels. The conditioning pulse was followed by depolarizing (150 ms) test pulses to 50 mV in 10 mV increments. Na^+ currents were recorded in absence, after 3 min in presence of the drugs and after a recovery time of 3 min.

[3] = target: TRPV1 (Homo sapiens, UniProt Q8NER1); test: TRPV1 assay, calcium imaging; assay type: cell-based; conditions: Ca2+ imaging (Fura-2-AM) after stimulation with 1 μM capsaicin
Procedure: Briefly, cells are seeded into poly-L-lysine-coated, glass-bottom, 24-well plates (1×10^5 cells/well) and incubated overnight under standard culture conditions to achieve the desired confluency. Culture media is removed and cells washed twice with HBS prior to incubation for 15 to 60 min at 37° C. with a labelling mixture comprised of Fura-2-AM and pluronic acid in HBS. Data collection occurs over an eight minute period and follows the same general sequence. Following loading, cells are stimulated by addition of 1 μM of capsaicin agonist for 2 min, after which a concentration series of the test sample (e.g., (0.5, 5, 10, 50 μg/ml) is added and imaging continued for an additional 5 min. Capsazepine (20 μM) serves as a known reference antagonist, while cells that are mock-treated or receive vehicle (e.g., DMSO) alone serve as negative controls. For imaging, plates are placed on the stage of an inverted epifluorescence microscope (e.g. Axiovert 200, Zeiss) equipped with a CCD digital camera (e.g., Axiocam MRm, Zeiss). For each well of the plate, a sequence of image pairs (excitation at 340 nm and 380 nm) are collected to capture intracellular calcium flux. Image sequences are analyzed in Image) (NIH) and average pixel intensities calculated for six representative cells in each test condition to achieve mean fluorescence.

Chain of TRPV1 (Q8NER1 whole entry, species assumed): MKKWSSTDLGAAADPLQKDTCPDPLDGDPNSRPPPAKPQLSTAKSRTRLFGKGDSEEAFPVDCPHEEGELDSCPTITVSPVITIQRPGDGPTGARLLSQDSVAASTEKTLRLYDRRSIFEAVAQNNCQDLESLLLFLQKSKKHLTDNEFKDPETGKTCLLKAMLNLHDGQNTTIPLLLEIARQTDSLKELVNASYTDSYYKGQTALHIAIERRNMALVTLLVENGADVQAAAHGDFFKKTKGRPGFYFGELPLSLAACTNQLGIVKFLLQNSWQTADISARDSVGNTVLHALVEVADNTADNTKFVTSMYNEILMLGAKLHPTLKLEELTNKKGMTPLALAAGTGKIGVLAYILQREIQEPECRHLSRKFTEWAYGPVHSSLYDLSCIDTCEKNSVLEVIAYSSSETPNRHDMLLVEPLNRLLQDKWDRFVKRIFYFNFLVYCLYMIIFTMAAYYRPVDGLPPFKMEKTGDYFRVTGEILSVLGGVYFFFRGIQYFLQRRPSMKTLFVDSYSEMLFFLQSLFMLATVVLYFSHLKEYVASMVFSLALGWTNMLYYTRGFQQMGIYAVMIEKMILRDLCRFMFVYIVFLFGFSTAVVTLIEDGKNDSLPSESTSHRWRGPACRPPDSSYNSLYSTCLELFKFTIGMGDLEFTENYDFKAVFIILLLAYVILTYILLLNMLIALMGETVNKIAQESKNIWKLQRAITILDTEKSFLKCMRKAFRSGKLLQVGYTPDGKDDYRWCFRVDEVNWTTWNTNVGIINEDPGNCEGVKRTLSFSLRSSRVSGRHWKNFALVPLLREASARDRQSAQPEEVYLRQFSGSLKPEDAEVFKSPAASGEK

IC50 [2]: 100 to 1000 µM
IC50 [3]: > 552 µM
SMILES: CNC(=O)C=C(C)CCC=C(C)C [NQ 2980, N,3,7-trimethylocta-2,6-dienamide]
EC50 [1]: 187 µM
